Reference: patent publication US20250269072A1, “PROCESSES FOR PREPARING RADIOLABELLED CONJUGATES” (CENTENARY INSTITUTE OF CANCER MEDICINE AND CELL BIOLOGY, priority 2021, published 2025)
Like-named read-outs stand apart in the source and are kept apart here.

Experiments:
[1] = system: quiescent endothelial cells; settings: quiescent endothelial cells in vitro; cited from earlier work
angiogenesis = settings: in vivo; cited from earlier work
proliferating cells = settings: cited from earlier work
[2] = cited from earlier work
[3] = In vitro stability of labelled NODAGA-GSAO products at room temperature (HPLC); assay type: physicochemical
Method: The in vitro stability of the complexed product is an important determinant for the potential clinical use of a therapeutic compound. Post-labelling stability was assessed by incubation of the ^175Lu- and ^63Cu-labelled NODAGA-GSAO products at room temperature.
The percentage of labelling at different time-points following formation of the isotope-NODAGA-GSAO complex was measured. Results are shown in FIG. 5 for A) the ^175Lu-labelled product obtained from incubation for 30 minutes at pH 5.0 at 80° C. and B) the ^63Cu-labelled product obtained from incubation for 30 minutes at pH 5.0 at room temperature. At certain time points, aliquots were taken and the labelling (black circles) of NODAGA-GSAO were assessed by HPLC. Data are from one or two (average±S.D. of the two measurements) experiments.

[4] = ^177Lu-CDI dosimetry estimated from ^68Ga-CDI biodistribution and kinetics; set-up: species or system human
Source text: The biodistribution and kinetics of ^68Ga-CDI was used to estimate […] dosimetry. […] These are similar to measured renal doses from ^177Lu-dotatate and ^177Lu-PSMA. Based on these estimations and comparability of renal dose to ^177Lu-dotatate and ^177Lu-PSMA, the initial […] level of ^177Lu-CDI will be approximately 2.0 GBq.

[5] = Radiolysis of ^177Lu-CDI after synthesis (radio-HPLC); assay type: physicochemical
Method: Labelling of CDI (54 μg) with ^177Lutetium (^177Lu) was performed in 0.083 M sodium acetate buffer at pH 5.0. 177Lu (500 MBq) and ascorbic acid (0.002 M) were added and the mixture was incubated at 85° C. for 30 min. In a similar reaction, CDI was labelled with ^177Lu in the presence of 0.01 M ascorbic acid and 0.028 M GSH.
The experiments using the radioisotope ^177Lu were performed on a Shimadzu LC-20 series LC system with two LC-20AP pumps, an SPD-20A UV/VIS detector and analysed using the LabLogic Laura software (version 4.2.11.129 SP2). […] The analytical column was an Alltima HP C18 150×4.6 mm 5 μm particle size (Hichrom, Berkshire, UK). The column was equilibrated in a mixture of 0.1% (v/v) trifluoroacetic acid in MiliQ water (mobile phase A) and acetonitrile (mobile phase B; 98/2, v/v). Samples (100 μL) were loaded on the column using the autosampler at room temperature. Products were eluted using a gradient of […] mobile phase B in mobile phase A over 0-18-28-38-42 min (^177Lu) or 0-18-28-32-33 min (^175Lu) at a flowrate of 0.6 mL/min. Absorbance was measured at 210 nm, 256 nm, and 280 nm and radioactivity was detected using a LabLogic Dual Scan-RAM.

[6] = Afshar-Oromieh et al., 4 subjects

N[C@@H](CCC(=O)N[C@@H](CSCC(=O)Nc1ccc([As](O)O)cc1)C(=O)NCC(=O)O)C(=O)O [GSAO, 4-(N—(S-glutathionylacetyl)amino)phenylarsenous acid]
toxicity [1]: nontoxic to quiescent endothelial cells in vitro | effect on angiogenesis (angiogenesis): inhibits angiogenesis in vivo | toxicity (proliferating cells): toxic to proliferating cells

O=C([O-])CN(CCN(CC(=O)[O-])Cc1cc(CCC(=O)NCCCCCC(=O)NCCCC[C@H](NC(=O)N[C@@H](CCC(=O)O)C(=O)O)C(=O)O)ccc1[O-])Cc1cc(CCC(=O)O)ccc1[O-].[68Ga+3].[OH3+] [^68Ga PSMA]
mean effective dose [2, 6]: 2.3E-02 mSv/MBq | renal dose [2, 6]: 2.6E-01 mSv/MBq | urinary bladder dose [2, 6]: 1.3E-01 mSv/MBq | Effective Dose ([2]; Pfob et al., 5 subjects): 2.37E-02 mSv/MBq | renal dose ([2]; Pfob et al., 5 subjects): 1.21E-01 mSv/MBq | urinary bladder dose ([2]; Pfob et al., 5 subjects): 1.64E-01 mSv/MBq

O=C(O)CNC(=O)[C@H](CSCC(=O)Nc1ccc([As](O)O)cc1)NC(=O)CC[C@H](NC(=O)CCC1C(=O)[O][175Lu]2[O]C(=O)CN3CCN(CCN1CC3)CC(=O)[O]2)C(=O)O (stereo partly drawn) [^175Lu-NODAGA-GSAO]
by-products ([3]; room temperature storage): 4-7.5 % of total AUC | labelling remaining ([3]; room temperature, after 14 days of storage): ~90%

O=C(O)CNC(=O)[C@H](CSCC(=O)Nc1ccc([As](O)O)cc1)NC(=O)CC[C@H](NC(=O)CCC1C(=O)[O][177Lu]2[O]C(=O)CN3CCN(CCN1CC3)CC(=O)[O]2)C(=O)O (stereo partly drawn) [^177Lu-NODAGA-GSAO]
estimated renal dose ([4]; combined physical decay and biological clearance model): 0.36 mGy/MBq | estimated renal dose ([4]; physical decay only model): 0.98 mGy/MBq | radiolysis after synthesis ([5]; […] incubation at room temperature, 0.002 M ascorbic acid): did not show an increase in radiolysis | radiolysis ([5]; labelling in presence of 0.01 M ascorbic acid and 0.028 M GSH): prevented radiolysis during and up to 72 h post CDI labelling
